Measurements reported in US10081624B2, “Heterocyclic compound” (Takeda Pharmaceutical Company Limited, priority 2014, dated 2018).

Tests used:
HDAC1 enzyme = target: T1, HDAC1 enzyme (Homo sapiens, UniProt Q13547); test: HDAC1 enzyme inhibitory assay (HDAC-Glo I/II Assay kit); format: biochemical; details: 1 μM test compound; for inhibition at 1 µM: read-out: HDAC1 inhibitory rate (%) (1 μM)
T1 construct: prepared by transducing full length HDAC1 and HDAC6 genes into Sf-9 insect cells; GST; purchased SignalChem; host or cells: Sf-9 insect cells
In short: (§1)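 Sf-9-expressed GST-purified full-length HDAC1/HDAC6; cpd + enzyme 60 min RT, 24 mM Tris-HCl pH 7.5, 135 mM NaCl, 0.6 mM glutathione, 0.01% Tween-20; substrate-developer 20 min RT; luminescence; no-enzyme wells = 100% inhibition.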

HDAC6 enzyme = target: T2, HDAC6 enzyme (Homo sapiens, UniProt Q9UBN7); test: HDAC6 enzyme inhibitory assay (HDAC-Glo I/II Assay kit); format: biochemical; details: 1 μM test compound; for inhibition at 1 µM: read-out: HDAC6 inhibitory rate (%) (1 μM)
T2 construct: prepared by transducing full length HDAC1 and HDAC6 genes into Sf-9 insect cells; GST; purchased SignalChem; host or cells: Sf-9 insect cells
T2 sequence (Q9UBN7 1-1215): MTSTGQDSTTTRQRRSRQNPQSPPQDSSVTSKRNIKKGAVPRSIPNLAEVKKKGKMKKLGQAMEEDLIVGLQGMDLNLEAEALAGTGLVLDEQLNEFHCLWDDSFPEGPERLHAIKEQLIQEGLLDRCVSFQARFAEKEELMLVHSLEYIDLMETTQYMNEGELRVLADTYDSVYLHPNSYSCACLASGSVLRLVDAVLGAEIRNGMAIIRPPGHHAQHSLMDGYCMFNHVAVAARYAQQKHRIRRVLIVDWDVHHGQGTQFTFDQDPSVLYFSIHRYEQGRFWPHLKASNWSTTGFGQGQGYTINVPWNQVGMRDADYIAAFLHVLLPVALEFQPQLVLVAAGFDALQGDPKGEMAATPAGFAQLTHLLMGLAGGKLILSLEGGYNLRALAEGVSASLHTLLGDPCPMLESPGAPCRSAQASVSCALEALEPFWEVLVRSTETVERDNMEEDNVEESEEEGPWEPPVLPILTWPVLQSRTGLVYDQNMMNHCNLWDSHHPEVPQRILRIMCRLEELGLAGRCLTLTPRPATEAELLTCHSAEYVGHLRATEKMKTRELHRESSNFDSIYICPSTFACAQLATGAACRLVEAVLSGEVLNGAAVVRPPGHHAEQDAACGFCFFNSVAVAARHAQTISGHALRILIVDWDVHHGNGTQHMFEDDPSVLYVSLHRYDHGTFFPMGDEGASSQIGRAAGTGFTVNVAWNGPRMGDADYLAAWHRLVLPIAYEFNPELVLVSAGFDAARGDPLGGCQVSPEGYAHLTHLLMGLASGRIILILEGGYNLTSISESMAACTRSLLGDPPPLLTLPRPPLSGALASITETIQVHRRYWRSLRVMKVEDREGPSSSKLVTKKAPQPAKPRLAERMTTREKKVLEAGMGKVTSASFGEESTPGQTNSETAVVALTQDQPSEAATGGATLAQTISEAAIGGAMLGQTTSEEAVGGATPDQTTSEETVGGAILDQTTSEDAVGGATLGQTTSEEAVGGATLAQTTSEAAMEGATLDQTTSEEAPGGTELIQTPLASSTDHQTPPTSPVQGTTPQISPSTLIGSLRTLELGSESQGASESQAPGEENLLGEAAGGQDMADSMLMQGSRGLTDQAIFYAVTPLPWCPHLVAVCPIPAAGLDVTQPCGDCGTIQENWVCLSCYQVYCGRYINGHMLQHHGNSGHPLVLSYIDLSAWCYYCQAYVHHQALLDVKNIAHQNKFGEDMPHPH
In short: as §1

T1 sequence (Q13547 whole entry): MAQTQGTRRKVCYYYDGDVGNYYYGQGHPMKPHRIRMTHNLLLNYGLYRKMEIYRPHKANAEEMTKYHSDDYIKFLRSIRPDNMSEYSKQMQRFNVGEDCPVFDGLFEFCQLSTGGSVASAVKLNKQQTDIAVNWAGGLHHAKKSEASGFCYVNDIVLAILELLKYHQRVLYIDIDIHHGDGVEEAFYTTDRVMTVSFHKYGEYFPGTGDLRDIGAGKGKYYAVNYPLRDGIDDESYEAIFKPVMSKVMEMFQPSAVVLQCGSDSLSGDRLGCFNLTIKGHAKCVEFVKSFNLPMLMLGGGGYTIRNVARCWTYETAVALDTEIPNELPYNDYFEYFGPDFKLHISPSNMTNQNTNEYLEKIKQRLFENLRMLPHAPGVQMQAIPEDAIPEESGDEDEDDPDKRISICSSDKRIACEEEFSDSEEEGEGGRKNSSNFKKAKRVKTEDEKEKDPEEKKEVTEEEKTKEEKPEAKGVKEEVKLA

Structure (SMILES)	inhibition at 1 µM (HDAC1 enzyme)	inhibition at 1 µM (HDAC6 enzyme)	HDAC1 inhibitory rate (%) (1 μM) (HDAC1 enzyme; 1 µM)	HDAC6 inhibitory rate (%) (1 μM) (HDAC6 enzyme)
O=C(NCC1COCCN1C(=O)C1CC1)c1ccc(-c2noc(C(F)(F)F)n2)cc1 (stereo not drawn) [Example 24, N-((4-(cyclopropylcarbonyl)morpholin-3-yl)methyl)-4-(5-(trifluoromethyl)-1,2,4-oxadiazol-3-yl)benzamide]	8%	93%	–	–
O=C(NC[C@H]1COCCN1C(=O)N1CCCCC1)c1ccc(-c2noc(C(F)(F)F)n2)cc1 [Example 89, N-(((3S)-4-(piperidin-1-ylcarbonyl)morpholin-3-yl)methyl)-4-(5-(trifluoromethyl)-1,2,4-oxadiazol-3-yl)benzamide]	12%	98%	–	–
O=C(NC[C@H]1COCCN1C(=O)N1CC[C@H](O)C1)c1ccc(-c2noc(C(F)(F)F)n2)cc1 [Example 274, N-(((3S)-4-(((3S)-3-hydroxypyrrolidin-1-yl)carbonyl)morpholin-3-yl)methyl)-4-(5-(trifluoromethyl)-1,2,4-oxadiazol-3-yl)benzamide]	3%	94%	–	–
O=C(NCC1COCCN1C(=O)c1cc(F)c(F)c(F)c1)c1ccc(-c2noc(C(F)(F)F)n2)cc1 (stereo in doubt) [Example 119, N-(((3R)-4-(3,4,5-trifluorobenzoyl)morpholin-3-yl)methyl)-4-(5-(trifluoromethyl)-1,2,4-oxadiazol-3-yl)benzamide]	11%	97%	–	–
O=C(NC[C@H]1COCCN1C(=O)N1CCCC1c1cccnc1)c1ccc(-c2noc(C(F)(F)F)n2)cc1 (stereo partly drawn) [Example 292, N-(((3S)-4-((2-(pyridin-3-yl)pyrrolidin-1-yl)carbonyl)morpholin-3-yl)methyl)-4-(5-(trifluoromethyl)-1,2,4-oxadiazol-3-yl)benzamide]	2%	76%	–	–
O=C(NCC1COCCN1C(=O)c1cccc(-c2ccccc2)c1)c1ccc(-c2noc(C(F)(F)F)n2)s1 (stereo not drawn) [Example 222, N-((4-(biphenyl-3-ylcarbonyl)morpholin-3-yl)methyl)-5-(5-(trifluoromethyl)-1,2,4-oxadiazol-3-yl)thiophene-2-carboxamide]	7%	89%	–	–
O=C(NCC1COCCN1C(=O)c1ccncc1)c1ccc(-c2noc(C(F)(F)F)n2)cc1 (stereo not drawn) [Example 14, N-((4-isonicotinoylmorpholin-3-yl)methyl)-4-(5-(trifluoromethyl)-1,2,4-oxadiazol-3-yl)benzamide]	20%	98%	–	–
Cc1nonc1C(=O)N1CCOC[C@@H]1CNC(=O)c1ccc(-c2noc(C(F)(F)F)n2)s1 [Example 260, N-(((3S)-4-((4-methyl-1,2,5-oxadiazol-3-yl)carbonyl)morpholin-3-yl)methyl)-5-(5-(trifluoromethyl)-1,2,4-oxadiazol-3-yl)thiophene-2-carboxamide]	44%	98%	–	–
COC[C@@H]1CCCN1C(=O)N1CCOC[C@@H]1CNC(=O)c1ccc(-c2noc(C(F)(F)F)n2)cc1 [Example 273, N-(((3S)-4-(((2S)-2-(methoxymethyl)pyrrolidin-1-yl)carbonyl)morpholin-3-yl)methyl)-4-(5-(trifluoromethyl)-1,2,4-oxadiazol-3-yl)benzamide]	3%	87%	–	–
O=C(NC[C@@H]1COCCN1C(=O)C(F)(F)c1ccccc1)c1ccc(-c2noc(C(F)(F)F)n2)s1 [Example 265, N-(((3R)-4-(difluoro(phenyl)acetyl)morpholin-3-yl)methyl)-5-(5-(trifluoromethyl)-1,2,4-oxadiazol-3-yl)thiophene-2-carboxamide]	76%	99%	–	–
O=C(NCC1COCCN1C(=O)c1ccnc(C2CC2)c1)c1ccc(-c2noc(C(F)(F)F)n2)cc1 (stereo not drawn) [Example 34, N-((4-(2-cyclopropylisonicotinoyl)morpholin-3-yl)methyl)-4-(5-(trifluoromethyl)-1,2,4-oxadiazol-3-yl)benzamide]	18%	98%	–	–
O=C(NC[C@H]1COCCN1C(=O)N1CCCCC1CO)c1ccc(-c2noc(C(F)(F)F)n2)cc1 (stereo partly drawn) [Example 304, N-(((3S)-4-((2-(hydroxymethyl)piperidin-1-yl)carbonyl)morpholin-3-yl)methyl)-4-(5-(trifluoromethyl)-1,2,4-oxadiazol-3-yl)benzamide]	–	–	9%	99%
Cc1nonc1C(=O)N1CCOC[C@@H]1CNC(=O)c1ccc(-c2noc(C(F)(F)F)n2)cc1 [Example 60, N-(((3S)-4-((4-methyl-1,2,5-oxadiazol-3-yl)carbonyl)morpholin-3-yl)methyl)-4-(5-(trifluoromethyl)-1,2,4-oxadiazol-3-yl)benzamide]	27%	98%	–	–
O=C(NC[C@H]1COCCN1C(=O)c1cccc(OCCO)c1)c1ccc(-c2noc(C(F)(F)F)n2)cc1 [Example 302, N-(((3S)-4-(3-(2-hydroxyethoxy)benzoyl)morpholin-3-yl)methyl)-4-(5-(trifluoromethyl)-1,2,4-oxadiazol-3-yl)benzamide]	10%	98%	–	–
O=C(NCC1COCCN1C(=O)c1ccccc1)c1ccc(-c2noc(C(F)(F)F)n2)cc1F (stereo not drawn) [Example 177, N-((4-benzoylmorpholin-3-yl)methyl)-2-fluoro-4-(5-(trifluoromethyl)-1,2,4-oxadiazol-3-yl)benzamide]	27%	99%	–	–
O=C(NC[C@H]1COCCN1C(=O)N1CCC(CO)CC1)c1ccc(-c2noc(C(F)(F)F)n2)cc1 [Example 278, N-(((3S)-4-((4-(hydroxymethyl)piperidin-1-yl)carbonyl)morpholin-3-yl)methyl)-4-(5-(trifluoromethyl)-1,2,4-oxadiazol-3-yl)benzamide]	6%	90%	–	–
O=C(NC[C@H]1COCCN1C(=O)c1cc(Cl)cc(Cl)c1)c1ccc(-c2noc(C(F)(F)F)n2)cn1 [Example 183, N-(((3S)-4-(3,5-dichlorobenzoyl)morpholin-3-yl)methyl)-5-(5-(trifluoromethyl)-1,2,4-oxadiazol-3-yl)pyridine-2-carboxamide]	57%	97%	–	–
O=C(NC[C@H]1COCCN1C(=O)C(F)(F)c1ccccc1)c1ccc(-c2noc(C(F)(F)F)n2)s1 [Example 261, N-(((3S)-4-(difluoro(phenyl)acetyl)morpholin-3-yl)methyl)-5-(5-(trifluoromethyl)-1,2,4-oxadiazol-3-yl)thiophene-2-carboxamide]	53%	101%	–	–
O=C(NC[C@H]1COCCN1C(=O)N1CCC(c2ccncc2)C1)c1ccc(-c2noc(C(F)(F)F)n2)cc1 (stereo partly drawn) [Example 295, N-(((3S)-4-((3-(pyridin-4-yl)pyrrolidin-1-yl)carbonyl)morpholin-3-yl)methyl)-4-(5-(trifluoromethyl)-1,2,4-oxadiazol-3-yl)benzamide]	8%	85%	–	–
Cn1nc2ccccc2c1C(=O)N1CCOCC1CNC(=O)c1ccc(-c2noc(C(F)(F)F)n2)s1 (stereo not drawn) [Example 251, N-((4-((2-methyl-2H-indazol-3-yl)carbonyl)morpholin-3-yl)methyl)-5-(5-(trifluoromethyl)-1,2,4-oxadiazol-3-yl)thiophene-2-carboxamide]	36%	96%	–	–
COC(=O)c1cccc(C(=O)N2CCOC[C@@H]2CNC(=O)c2ccc(-c3noc(C(F)(F)F)n3)cc2)c1 [Example 268, methyl 3-(((3S)-3-(((4-(5-(trifluoromethyl)-1,2,4-oxadiazol-3-yl)benzoyl)amino)methyl)morpholin-4-yl)carbonyl)benzoate]	15%	96%	–	–
